Our source for the LD50 values is ChEMBL document CHEMBL3045016, “Insecticidal compounds from the essential oil of Chinese medicinal herb Atractylodes chinensis” (2011).

This assay relates to Drosophila melanogaster. As to the kind of experiment: Insecticidal activity against wild type Drosophila melanogaster L. assessed as mortality compound topically applied dorsally to the thorax at 23 to 25 25 degC, 60 to 70%RH measured per adult after 3 hr. In kind it is functional.
For the compound `C=C[C@]1(C)CC[C@@H](C(C)(C)O)C[C@H]1C(=C)C` [ALPHA-ELEMOL], the LD50 is 0.65 µg.
As to `C=C1CCC[C@]2(C)Cc3occ(C)c3C[C@@H]12` [ATRACTYLON], the LD50 came out at 1.43 µg.
Under `C=C1CCC[C@]2(C)CC[C@@H](C(C)(C)O)C[C@@H]12` [BETA-EUDESMOL] stands 2.63 µg.
With `C=C(C)[C@@H]1CC[C@@]2(C)CCCC(=C)[C@@H]2C1` [BETA-SELINENE], the LD50 was 0.55 µg.
On to `CC1=CCC[C@H](C)[C@@]12CC[C@@H](C(C)(C)O)C2` [HINESOL], for which the LD50 was 0.71 µg.
